Where “and” joins values, the source holds several entries; their conditions need not be identical. Equal entries are not always repeated.
Experiments:
[1] = Plasma stability and conversion to EFdA
Protocol: The pooled frozen plasma was thawed in a water bath at 37° C. prior to experiment. Plasma was centrifuged at 4000 rpm for 5 min and the clots were removed if any. The pH will be adjusted to 7.4±0.1 if required.
Preparation of test compounds and positive control (propantheline bromide): 1 mM intermediate solution was prepared by diluting 10 μL of the stock solution with 90 μL MeOH; 1 mM intermediate of positive control Propantheline was prepared by diluting 10 μL of the stock solution with 90 μL ultrapure water. 100 μM dosing solution was prepared by diluting 20 μL of the intermediate solution (1 mM) with 180 μL MeOH. 98 μL of blank plasma was spiked with 2 μL of dosing solution (100 μM) to achieve 2 μM of the final concentration in duplicate and samples were incubated at 37° C. in a water bath. At each time point (0, 10, 30, 60 and 120 min), […] of stop solution (0.1% FA in MeOH containing 200 ng/mL tolbutamide and 200 ng/mL Labetalol) was added to precipitate protein and mixed thoroughly. Centrifuged sample plates at 4,000 rpm for 10 min. An aliquot of supernatant (100 μL) was transferred from each well to another plates.
Data analysis: The % remaining of test compound after incubation in plasma was calculated using following equation: % Remaining=100×(PAR at appointed incubation time/PAR at T0 time) where PAR is the peak area ratio of analyte versus internal standard (IS) (LC/MS/MS mobile phase condition: 0.1% Formic Acid in Water/0.1% Formic Acid in Acetonitrile. The appointed incubation time points are TO (0 min), Tn (n=0, 10, 30, 60, 120 min). Liver S9 Stability

[2] = Plasma exposures following IV infusion alone or in combination to Sprague-Dawley rats
Protocol: The pharmacokinetics of EFdA and prodrug formula 4-A, as well as lenacapavir were studied in rats after IV infusion administration alone or in combination at a dose of 1.0 mg/kg each.
Formulations: The prodrugs and lenacapavir were formulated alone or in combination as solutions at 1.0 mg/mL each in 20% […], 10% Solutol aqueous solution within 0.5 hour prior to dose.
Dose Administration and Sample Collection: The in-life phase of this study was conducted at the WuXi Apptec (WuXi) at Shanghai, China in accordance with the WuXi Institutional Animal Care and Use Committee (IACUC) standard animal procedures along with the IACUC guidelines that are in compliance with the Animal Welfare Act, the Guide for the Care and Use of Laboratory Animals. and was approved by the IACUA Committee. Male Sprague-Dawley rats (0.262+/−0.019 kg) were used for the studies. Each drug was administered as a single dose by 30-min IV infusion (1 ml/kg) alone or in combination. Plasma samples were collected at 0 (pre-dose), 5, 10, 15 and 30 min, 1, 2, 4, 7, 12 and 24 h post-dose. Blood (approximately 0.1 mL) was processed immediately for plasma by centrifugation at 3,200 g at 4° C. for 10 min within half an hour of collection. Plasma samples were frozen and maintained at −70° C. until analyzed. To stabilize the prodrug at the sample collection and subsequent analysis, the following stabilizing reagents were added to the blood collection K2EDTA tubes on wet ice prior to sample collection: for each 100 mL of blood, 10 mL of premade inhibitor cocktail consists of 600 mM Citric Acid, 400 mM PMSF, 400 mM NaF, and 400 mM Dichlorvos.
Determination of EFdA and Prodrugs in plasma: Briefly, plasma (20 μL) was mixed with 100 l acetonitrile to precipitate protein. Consistent with sample collection procedure, the same cocktail protocol was also added to stabilize the prodrug in the standard and QC samples.
Bioanalysis: A Sciex API-6500 Plus triplequadrupole mass spectrometer coupled with a Waters Acquity UPLC system (Framingham, MA 01701) was used for quantitative analysis of plasma samples. The column was a Waters HSS T3 column (2.1×50 mm, 1.8 micrometer). The mobile phases used were: A, 0.1% formic acid in water; B, 0.1% formic acid in acetonitrile. For the analysis of EFdA and prodrugs in plasma, the flow rate was 0.6 mL/min with a total run time of 2.0 min. […] Detection of the prodrug and EFdA were achieved using positive ion electrospray mass spectroscopic mode using unit resolution mode. Multiple reaction monitoring (MRM) modes were used to quantify both prodrug and EFdA, e.g. the MRM transition for EFdA was 294.0-154.2 Da, and the transition for prodrug 4-A was 449.3-164.9 Da. For the analysis of lenacapavir in plasma, the flow rate was 0.7 mL/min with a total run time of 1.5 min. The HPLC gradient was initiated at 95% A/5% B for 0.50 min, followed by linear gradient increase to […] over the next 0.2 min; the gradient was subsequently maintained at 100% of mobile B over the next 0.7 min before ramping down to 95% mobile phase A within the following 0.1 min. Detection of lenacapavir was achieved using positive ion electrospray mass spectroscopic mode using unit resolution mode. Multiple reaction monitoring (MRM) modes were used to quantify lenacapavir, e.g. the MRM transition for lenacapavir was 968.1-869.4 Da. Peak areas were integrated by the Sciex program Analyst®, version 1.6.3, operating on a Windows 7 computer where concentrations were determined by a weighted (1/x2) linear regression of peak area ratios (peak area of EFdA/peak area of corresponding IS) versus the nominal concentrations of the plasma calibration standards. Calculations were performed on unrounded numbers. Overall, Analyst® determined the precision and accuracy for the calibration standards and QC samples.

[3] = Prodrug formula 4-A IV infusion 1.0 mg/kg alone, 4.00 hrs, individual animals
[4] = Prodrug formula 4-A IV infusion 1.0 mg/kg alone, 7.00 hrs, individual animals
[5] = Prodrug formula 4-A IV infusion 1.0 mg/kg alone, 12.0 hrs, individual animals
[6] = Prodrug formula 4-A IV infusion 1.0 mg/kg alone, 24.0 hrs, individual animals
[7] = Prodrug formula 4-A IV infusion 1.0 mg/kg with Lenacapavir, 7.00 hrs, individual animals
[8] = Prodrug formula 4-A IV infusion 1.0 mg/kg with Lenacapavir, 12.0 hrs, individual animals
[9] = Prodrug formula 4-A IV infusion 1.0 mg/kg with Lenacapavir, 24.0 hrs, individual animals
[10] = Prodrug formula 4-A IV infusion 1.0 mg/kg with Lenacapavir, 48.0 hrs, individual animals
[11] = Prodrug formula 4-A IV infusion 1.0 mg/kg with Lenacapavir, 72.0 hrs, individual animals

SMILES: C#C[C@]1(COC(=O)OCc2oc(=O)oc2C)O[C@@H](n2cnc3c(N)nc(F)nc32)C[C@@H]1O [Formula 4-A, ((2R,3S,5R)-5-(6-amino-2-fluoro-9H-purin-9-yl)-2-ethynyl-3-hydroxytetrahydrofuran-2-yl)methyl ((5-methyl-2-oxo-1,3-dioxol-4-yl)methyl) carbonate]
- Conversion to the target drug (EFdA) in human plasma assay [1]: converted to the target drug efficiently
- Stability in Human Plasma Formation of EFdA ([1]; human plasma): Yes
- half-life at 2 µM ([1]; human, plasma, pH 7.4): < 50 min
- Prodrug formula 4A Concentrations in Rat Plasma When Dosed alone ([2]; Prodrug formula 4-A IV infusion 1.0 mg/kg alone, 0.0830 hrs, individual animals): BQL
- Prodrug formula 4A Concentrations in Rat Plasma When Dosed alone ([2]; Prodrug formula 4-A IV infusion 1.0 mg/kg alone, 0.167 hrs, individual animals): BQL
- Prodrug formula 4A Concentrations in Rat Plasma When Dosed alone ([2]; Prodrug formula 4-A IV infusion 1.0 mg/kg alone, 0.250 hrs, individual animals): BQL
- Prodrug formula 4A Concentrations in Rat Plasma When Dosed alone ([2]; Prodrug formula 4-A IV infusion 1.0 mg/kg alone, 0.500 hrs, individual animals): BQL
- Prodrug formula 4A Concentrations in Rat Plasma When Dosed alone ([2]; Prodrug formula 4-A IV infusion 1.0 mg/kg alone, 1.00 hrs, individual animals): BQL
- Prodrug formula 4A Concentrations in Rat Plasma When Dosed alone ([2]; Prodrug formula 4-A IV infusion 1.0 mg/kg alone, 2.00 hrs, individual animals): BQL
- EFdA Concentrations in Rat Plasma When Dosed Alone [2, 3]: BQL
- Prodrug formula 4A Concentrations in Rat Plasma When Dosed alone [2, 3]: BQL
- EFdA Concentrations in Rat Plasma When Dosed Alone [2, 4]: BQL
- Prodrug formula 4A Concentrations in Rat Plasma When Dosed alone [2, 4]: BQL
- EFdA Concentrations in Rat Plasma When Dosed Alone [2, 5]: BQL
- Prodrug formula 4A Concentrations in Rat Plasma When Dosed alone [2, 5]: BQL
- EFdA Concentrations in Rat Plasma When Dosed Alone [2, 6]: BQL
- Prodrug formula 4A Concentrations in Rat Plasma When Dosed alone [2, 6]: BQL
- Prodrug formula 4A Concentrations in Rat Plasma When Dosed with Lenacapavir ([2]; Prodrug formula 4-A IV infusion 1.0 mg/kg with Lenacapavir, 0.0830 hrs, individual animals): 1.37 ng/mL and 5.19 ng/mL and 1.54 ng/mL and 2.80 ng/mL
- Prodrug formula 4A Concentrations in Rat Plasma When Dosed with Lenacapavir ([2]; Prodrug formula 4-A IV infusion 1.0 mg/kg with Lenacapavir, 0.167 hrs, individual animals): BQL
- Prodrug formula 4A Concentrations in Rat Plasma When Dosed with Lenacapavir ([2]; Prodrug formula 4-A IV infusion 1.0 mg/kg with Lenacapavir, 0.250 hrs, individual animals): 1.13 ng/mL and BQL (2×) and 2.38 ng/mL
- Prodrug formula 4A Concentrations in Rat Plasma When Dosed with Lenacapavir ([2]; Prodrug formula 4-A IV infusion 1.0 mg/kg with Lenacapavir, 0.500 hrs, individual animals): BQL
- Prodrug formula 4A Concentrations in Rat Plasma When Dosed with Lenacapavir ([2]; Prodrug formula 4-A IV infusion 1.0 mg/kg with Lenacapavir, 1.00 hrs, individual animals): BQL
- Prodrug formula 4A Concentrations in Rat Plasma When Dosed with Lenacapavir ([2]; Prodrug formula 4-A IV infusion 1.0 mg/kg with Lenacapavir, 2.00 hrs, individual animals): BQL
- Prodrug formula 4A Concentrations in Rat Plasma When Dosed with Lenacapavir ([2]; Prodrug formula 4-A IV infusion 1.0 mg/kg with Lenacapavir, 4.00 hrs, individual animals): BQL
- EFdA Concentrations in Rat Plasma When Dosed with Lenacapavir [2, 7]: BQL
- Prodrug formula 4A Concentrations in Rat Plasma When Dosed with Lenacapavir [2, 7]: BQL
- EFdA Concentrations in Rat Plasma When Dosed with Lenacapavir [2, 8]: BQL
- Prodrug formula 4A Concentrations in Rat Plasma When Dosed with Lenacapavir [2, 8]: BQL
- EFdA Concentrations in Rat Plasma When Dosed with Lenacapavir [2, 9]: BQL
- Prodrug formula 4A Concentrations in Rat Plasma When Dosed with Lenacapavir [2, 9]: BQL
- EFdA Concentrations in Rat Plasma When Dosed with Lenacapavir [2, 10]: BQL
- Prodrug formula 4A Concentrations in Rat Plasma When Dosed with Lenacapavir [2, 10]: BQL
- EFdA Concentrations in Rat Plasma When Dosed with Lenacapavir [2, 11]: BQL
- Prodrug formula 4A Concentrations in Rat Plasma When Dosed with Lenacapavir [2, 11]: BQL
- concentration at 0.25 h ([2]; male, Sprague-Dawley, rat, in vivo, 1 mg/kg, Prodrug formula 4A Concentrations in Rat Plasma When Dosed alone, Prodrug formula 4-A IV infusion 1.0 mg/kg alone, 0.250 hrs, individual animals): 2.27 ng/mL
- concentration at 0.083 h ([2]; male, Sprague-Dawley, rat, in vivo, Prodrug formula 4A Concentrations in Rat Plasma When Dosed with Lenacapavir, Prodrug formula 4-A IV infusion 1.0 mg/kg with Lenacapavir, 0.0830 hrs, Mean): 2.73 ng/mL
- concentration at 0.25 h ([2]; male, Sprague-Dawley, rat, in vivo, Prodrug formula 4A Concentrations in Rat Plasma When Dosed with Lenacapavir, Prodrug formula 4-A IV infusion 1.0 mg/kg with Lenacapavir, 0.250 hrs, Mean): 1.76 ng/mL
- Prodrug detected in the systemic circulation ([2]; rats, in the absence and presences of lenacapavir): minimal prodrug detected in the systemic circulation

— patent US12257264B2, “Combination therapy for HIV with adenosine derivative and capsid inhibitors” (Brii Biosciences, Inc., priority 2021, dated 2025)
